Reference: the supplement of paper PMC10307832

Assays:
Assay in all cases: relative viability (nuclei count vs DMSO), 5 days (fraction); higher = more cells survive
Carfilzomib + AZD7762 = compound: CC(C)C[C@H](NC(=O)[C@H](CCc1ccccc1)NC(=O)CN1CCOCC1)C(=O)N[C@@H](Cc1ccccc1)C(=O)N[C@@H](CC(C)C)C(=O)[C@@]1(C)CO1 [Carfilzomib] + NC(=O)Nc1cc(-c2cccc(F)c2)sc1C(=O)N[C@H]1CCCNC1 [AZD7762] (partner 0.2 µM)
In short: (§1)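 Relative viability is defined as nuclei in treated wells over nuclei in vehicle wells. Duplicate plates were run and medians reported. Lung cancer cell lines in 1536-well plates were dosed by pin tool one day after seeding, with one drug or with a fixed anchor-drug dose plus five library-drug doses (not always all listed) in √10 steps, and nuclei were counted after 5 days.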

Olaparib + Vorinostat = compound: O=C(c1cc(Cc2n[nH]c(=O)c3ccccc23)ccc1F)N1CCN(C(=O)C2CC2)CC1 [Olaparib] + O=C(CCCCCCC(=O)Nc1ccccc1)NO [Vorinostat] (partner 1 µM)
In short: as §1

Crizotinib + Bortezomib = compound: C[C@@H](Oc1cc(-c2cnn(C3CCNCC3)c2)cnc1N)c1c(Cl)ccc(F)c1Cl [Crizotinib] + CC(C)C[C@H](NC(=O)[C@H](Cc1ccccc1)NC(=O)c1cnccn1)B(O)O [Bortezomib] (partner 0.002 µM)
In short: as §1

Carfilzomib + Bortezomib = compound: CC(C)C[C@H](NC(=O)[C@H](CCc1ccccc1)NC(=O)CN1CCOCC1)C(=O)N[C@@H](Cc1ccccc1)C(=O)N[C@@H](CC(C)C)C(=O)[C@@]1(C)CO1 [Carfilzomib] + CC(C)C[C@H](NC(=O)[C@H](Cc1ccccc1)NC(=O)c1cnccn1)B(O)O [Bortezomib] (partner 0.002 µM)
In short: as §1

Cell Line | relative viability (Carfilzomib + AZD7762; first compound 0.001 µM) | relative viability (Carfilzomib + AZD7762; first compound 0.003162 µM) | relative viability (Carfilzomib + AZD7762; first compound 0.01 µM) | relative viability (Carfilzomib + AZD7762; first compound 0.03162 µM) | relative viability (Carfilzomib + AZD7762; first compound 0.1 µM) | relative viability (Olaparib + Vorinostat; first compound 0.08 µM) | relative viability (Olaparib + Vorinostat; first compound 0.253 µM) | relative viability (Olaparib + Vorinostat; first compound 2.53 µM) | relative viability (Olaparib + Vorinostat; first compound 8 µM) | relative viability (Crizotinib + Bortezomib; first compound 0.01 µM) | relative viability (Crizotinib + Bortezomib; first compound 0.03162 µM) | relative viability (Crizotinib + Bortezomib; first compound 0.1 µM) | relative viability (Crizotinib + Bortezomib; first compound 0.3162 µM) | relative viability (Crizotinib + Bortezomib; first compound 1 µM) | relative viability (Carfilzomib + Bortezomib; first compound 0.001 µM) | relative viability (Carfilzomib + Bortezomib; first compound 0.003162 µM) | relative viability (Carfilzomib + Bortezomib; first compound 0.01 µM) | relative viability (Carfilzomib + Bortezomib; first compound 0.03162 µM) | relative viability (Carfilzomib + Bortezomib; first compound 0.1 µM)
H3255 | 0.849 | 0.982 | 1.13 | 0.795 | 0.237 | 0.859 | 0.722 | 0.904 | 0.757 | 0.736 | 0.925 | 0.814 | 0.681 | 0.659 | 0.765 | 0.769 | 0.841 | 0.315 | 0.179
NCI-H1355 | 0.8 | 0.886 | 0.91 | 0.512 | 0.207 | 0.683 | 0.645 | 0.638 | 0.641 | 1.23 | 1.21 | 1.22 | 1.1 | 1.24 | 1.07 | 1.1 | 1.15 | 0.315 | 0.157
EMC-BAC-2 | 1.13 | 1.22 | 1.22 | 1.06 | 0.716 | 0.584 | 0.405 | 0.703 | 0.446 | 1.04 | 1.08 | 0.997 | 1 | 1.03 | 1.03 | 1.06 | 1.07 | 0.66 | 0.448
HCC-44 | 1.01 | 1.02 | 1.03 | 0.988 | 0.716 | 1.12 | 1.06 | 1.22 | 1.16 | 0.903 | 0.751 | 0.936 | 0.773 | 0.952 | 0.876 | 0.917 | 0.897 | 0.552 | 0.147
PC-3 [JPC-3] | 0.882 | 0.762 | 0.993 | 0.512 | 0.248 | 0.923 |  | 0.943 | 0.942 | 0.772 | 0.948 | 0.833 | 0.878 | 0.837 | 0.864 | 0.767 | 0.581 | 0.245 | 0.147
NCI-H1734 | 0.549 | 0.633 | 0.521 | 0.204 | 0.114 | 0.868 | 0.74 | 0.715 | 0.572 | 1.01 | 0.926 | 0.87 |  | 1.07 | 0.848 | 1.1 | 0.484 | 0.147 | 0.146
HOP-62 | 0.619 | 0.699 | 0.404 | 0.173 | 0.0821 | 0.757 | 0.575 | 0.675 | 0.379 | 0.822 | 0.788 | 1.03 | 0.523 | 0.584 | 0.531 | 0.475 | 0.425 | 0.0851 | 0.0746
HARA | 0.454 | 0.232 | 0.398 | 0.18 | 0.146 | 0.45 | 0.472 | 0.553 | 0.507 | 1.02 | 1.08 | 1.11 | 1.13 | 1.12 | 1.2 | 1.05 | 0.394 | 0.0539 | 0.0619
NCI-H1993 | 0.625 | 0.841 | 0.69 | 0.589 | 0.503 | 0.962 | 0.869 | 0.82 | 0.88 | 0.937 | 1.05 | 0.833 | 0.899 | 0.76 | 0.912 | 1.18 | 1.1 | 0.453 | 0.425
NCI-H460 | 0.655 | 0.567 | 0.687 | 0.732 | 0.0739 | 0.778 | 0.58 | 0.378 | 0.0953 | 1.08 | 1.07 | 1.01 | 1.2 | 1.1 | 1.06 | 1.12 | 1 | 0.0827 | 0.0107
NCI-H596 | 1.05 | 1.22 | 1.09 | 0.66 | 0.211 | 0.696 | 0.529 | 0.551 | 0.397 | 0.894 | 1.18 | 1.1 | 1.45 | 0.947 | 0.885 | 0.987 | 0.839 | 0.483 | 0.2
NCI-H441 | 1.06 | 1.23 | 1.07 | 0.252 | 0.138 | 0.808 | 0.696 | 0.673 | 0.607 | 0.689 | 0.419 | 0.764 |  | 0.355 | 0.25 | 0.383 | 0.14 | 0.153 | 0.111
NCI-H322M | 0.677 | 0.527 | 0.682 | 0.59 | 0.464 | 1.01 | 0.854 | 0.942 | 0.831 | 1.19 | 1.23 | 1.24 | 1.29 | 1.38 | 1.27 | 1.31 | 1.35 | 1.21 | 0.66
HCC-827 | 0.194 | 0.202 | 0.207 | 0.201 | 0.17 | 0.818 | 0.723 | 0.893 | 0.766 | 0.887 | 1.06 | 1.14 | 0.999 | 0.931 | 1.01 | 1.01 | 1.06 | 0.677 | 0.422
NCI-H1651 | 0.372 | 0.471 | 0.457 | 0.208 | 0.0827 | 0.493 | 0.515 | 0.493 | 0.365 | 0.93 | 0.979 | 0.939 | 0.815 | 0.924 | 0.895 | 0.836 | 0.647 | 0.292 | 0.134
EKVX | 0.318 | 0.782 | 0.756 |  | 0.761 | 0.667 | 0.679 | 0.776 | 0.646 | 1.06 | 1.05 | 0.959 | 0.934 | 1.1 | 1.03 | 1.08 | 1.14 | 0.285 | 0.345
201T | 0.67 | 0.574 | 0.626 | 0.591 | 0.461 | 1.07 | 0.912 | 0.954 | 0.947 | 1.07 | 1.09 |  | 1.14 | 1.2 | 1.09 | 1.06 | 1.1 | 1.09 | 0.732
